Test results: patent US20170198011A1, “COMPOSITION FOR TREATING SEPSIS OR SEPTIC SHOCK COMPRISING THE PEPTIDE ORIGINATED FROM THE SMAD6” (Medpacto, Inc., priority 2011, published 2017)
Where no end group is shown, it is not given here.

What was measured:
[1] = target: T1, Pellino-1N domain (Homo sapiens, UniProt Q96FA3); test: Co-immunoprecipitation of Smad6 MH2 mutants with HA-tagged Pellino-1N in HEK293 cells; format: binding; details: truncated mutants of Smad6 MH2 domain
T1 construct: expressed in transfected cells; host or cells: HEK293
T1 sequence (Q96FA3 1-140 limits assumed): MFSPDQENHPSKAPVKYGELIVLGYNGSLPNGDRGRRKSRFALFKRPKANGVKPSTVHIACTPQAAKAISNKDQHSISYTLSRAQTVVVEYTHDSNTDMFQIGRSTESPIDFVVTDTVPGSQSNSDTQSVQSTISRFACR
Description: To examine a minimum region of Smad6 that binds certainly to Pellino-1, which specifically interrupts NF-κB (κB nuclear factor kappa B) signaling, mutants were constructed by consecutively truncating the Smad6 MH2 domain, and analyzed using a co-immunoprecipitation assay.
[…] Plasmids carrying genes for different regions of Smad6 (Myc-Smad6 MH2, Myc-Smad6 346F, Myc-Smad6 371F, Myc-Smad6 385F, Myc-Smad6 464R, Myc-Smad6 441R, Myc-Smad6 410R, Myc-Smad6 385-441, Myc-Smad6 385-427, Myc-Smad6 385-418, Myc-Smad6 385-410, Myc-Smad6 400-441, Myc-Smad6 400-427, Myc-Smad6 400-418, Myc-Smad6 400-410, Myc-Smad6 422-441) were constructed by amplifying a full-length Smad6 cDNA by PCR and subcloning it into the BamHI/XhoI site of the pSC3+MT 6×Myc vector. Myc-Smad6 R429A, Myc-Smad6 P432A, Myc-Smad6 P433G, Myc-Smad6 Y435F, and Myc-Smad6 I437D were created using a QuikChange mutagenesis kit (Stratagene).
A co-immunoprecipitation assay was carried out as follows. […]

[2] = system: IκBα; test: Immunoblot of LPS-induced IκBα degradation in stably transformed CMT-93 cells; format: cell-based; details: CMT-93 cells stably expressing the region
Description: To confirm the specific inhibitory activity of the Smad6 β-sheet small region against NF-κB signaling, the epithelial cell line CMT-93, which is susceptible to both TGF-β1 and LPS, was transformed to stably express the Smad6 β-sheet region.

[3] = system: NF-κB; test: 5xNF-κB-Luc reporter luciferase assay in CMT-93 cells; format: cell-based; details: LPS 10 ng/ml 2 hrs
Description: FIG. 2B is a graph showing results of the luciferase assay conducted with CMT-93 cells after transfection with a 5×NF-κB-Luc reporter plasmid plus an empty vector, a plasmid carrying Myc-Smad6 (400-441), or a plasmid carrying full-length Smad6, and
FIG. 3E is a graph showing TGF-β-induced luciferase activity in CMT-93 cells transformed with a 5×NF-κB-Luc reporter plasmid plus an empty vector or a Myc-Smad6 (422-441) plasmid;
(§1) To examine whether the small region of Smad6 MH2 domain specifically suppresses LPS-induced NF-κB signaling, a 5×NF-κB-Luc reporter plasmid and an SBE (Smad binding element)-Luc reporter plasmid were separately transfected, together with a plasmid expressing a peptide from amino acid 400 to 441 of Smad6, into a CMT-93 epithelial cell line with the aid of Effectene (Qiagen). Following treatment with LPS (10 ng/ml) or TGF-β1 (5 ng/ml) for 2 hrs, the transfected cells were examined for luciferase activity. […] All experiments were independently repeated three times, while a full-length Smad6 plasmid was used as a control.

[4] = system: TGF-β1 signaling (Smad binding element); test: SBE-Luc reporter luciferase assay in CMT-93 cells; format: cell-based; details: TGF-β1 5 ng/ml 2 hrs
Description: FIG. 2A is a graph showing results of the luciferase assay conducted with CMT-93 cells after transfection with SBE-Luc reporter plasmid plus an empty vector, a plasmid carrying Myc-Smad6 (400-441), or a plasmid carrying full-length Smad6,
FIG. 3D is a graph showing TGF-β-induced luciferase activity in CMT-93 cells transformed with an SBE-Luc reporter plasmid plus an empty vector or a Myc-Smad6 (422-441) plasmid, and
as §1

[5] = target: T2, Pellino-1 (Homo sapiens, UniProt Q96FA3); test: Co-immunoprecipitation of Smad6 truncated mutants with HA-tagged full length Pellino-1 in HEK293 cells; format: binding
T2 construct: plus an HA-tagged full length Pellino-1 plasmid; expressed in transfected cells; host or cells: HEK293
T2 sequence (Q96FA3 1-418): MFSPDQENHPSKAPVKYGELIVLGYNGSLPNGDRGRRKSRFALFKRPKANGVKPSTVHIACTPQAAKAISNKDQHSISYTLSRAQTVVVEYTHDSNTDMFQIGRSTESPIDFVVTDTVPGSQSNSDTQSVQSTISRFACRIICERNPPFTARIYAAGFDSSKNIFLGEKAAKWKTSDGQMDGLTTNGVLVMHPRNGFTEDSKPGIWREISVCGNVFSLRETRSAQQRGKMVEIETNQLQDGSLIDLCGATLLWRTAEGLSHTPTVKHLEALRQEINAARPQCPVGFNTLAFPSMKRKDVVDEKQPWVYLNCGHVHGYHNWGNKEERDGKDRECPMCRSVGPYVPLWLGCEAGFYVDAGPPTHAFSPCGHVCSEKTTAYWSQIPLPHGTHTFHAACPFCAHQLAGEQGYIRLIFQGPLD
Experimental: (§2) A co-immunoprecipitation assay was carried out as follows. For use as antibodies in co-immunoprecipitation, mouse anti-HA (F-7), mouse anti-c-Myc (9E10), rabbit anti-IκBα (C-21), mouse anti-IRAK1 (F-4), and mouse anti-TRAF6 (D-10) were purchased from Santa Cruz Biotechnology (USA), the antibodies rabbit anti-Pellino-1 and rabbit anti-IRAK4 from Imgenex, the antibodies rabbit anti-Smad6, rabbit anti-MyD88 (D80F5), rabbit anti-IKKα, rabbit anti-phospho-IKKα/β, rabbit anti-RIP1 (D94C12), rabbit anti-IKKi (anti-IKKE; D61F9), rabbit anti-TBK1 (D1B4), rabbit anti-GRK2 from Cell Signaling, and the antibody anti-β-actin from Sigma. Cells were lysed in a lysis buffer (PBS containing 0.5% Triton X-100, 20 mM HEPES (pH 7.4), 150 mM NaCl, 12.5 mM β-glycerol phosphate, 1.5 mM MgCl2, 10 mM NaF, 2 mM DTT, 1 mM Na3O4V, 2 mM EGTA, 1 mM PMSF and protease inhibitor mixture), and harvested by centrifuging 13,000 rpm for 10 min. For immunoprecipitation, the cell lysate were incubated at 4° C. for 12 hrs with protein-A agarose beads and the above-mentioned antibodies. Afterwards, the beads were washed three times with a lysis buffer, and treated with a 2× sample buffer to separate the co-immunoprecipitates therefrom. The co-immunoprecipitates were boiled, followed by SDS-PAGE. […]

[6] = system: IRAK1, TRAF6, MyD88; test: Co-immunoprecipitation of Smad6 (422-441) with other TLR4 signaling proteins in HEK293 cells; format: binding; details: Flag-IRAK1, Flag-TRAF6, Flag-MyD88
Experimental: as §2

With “Myc-Smad6 400-441: plasmid-expressed Myc-tagged peptide region from amino acid 400 to 441 of the Smad6 MH2 domain (VWAYNRGEHPIFVNSPTLDAPGGRALVVRKVPPGYSIKVFDF; also: Myc tag, plasmid-expressed; UniProt O43541 400-441, looked up, fragment)” the “interaction with the Pellino-1N domain” value [1] was “interact”, the “LPS-induced IκBα degradation detected” value [2] was “not” and the NF-κB-mediated reporter activity [3] was “selectively suppressed”. For the same molecule, the TGF-β1-mediated reporter activity [4] was “did not suppress”.

For “Myc-Smad6 422-441: plasmid-expressed Myc-tagged minimum region, amino acid 422 to 441 of Smad6 (GGRALVVRKVPPGYSIKVFD; also: Myc tag, plasmid-expressed)”, the “binding to Pellino-1” value [5] was “sufficient and minimally required”, the NF-κB-mediated reporter activity [3] was “specifically suppressing” and the TGF-β1-mediated reporter activity [4] was “did not suppressed”. The “binding to other proteins involved in the TLR4 signaling pathway” value [6] was “not to other proteins involved in the TLR4 signaling pathway”.

B1: full-length Smad6: full-length Smad6 plasmid used as a control (protein, UniProt O43541 1-496, looked up)
chain: MFRSKRSGLVRRLWRSRVVPDREEGGSGGGGGGDEDGSLGSRAEPAPRAREGGGCGRSEVRPVAPRRPRDAVGQRGAQGAGRRRRAGGPPRPMSEPGAGAGSSLLDVAEPGGPGWLPESDCETVTCCLFSERDAAGAPRDASDPLAGAALEPAGGGRSREARSRLLLLEQELKTVTYSLLKRLKERSLDTLLEAVESRGGVPGGCVLVPRADLRLGGQPAPPQLLLGRLFRWPDLQHAVELKPLCGCHSFAAAADGPTVCCNPYHFSRLCGPESPPPPYSRLSPRDEYKPLDLSDSTLSYTETEATNSLITAPGEFSDASMSPDATKPSHWCSVAYWEHRTRVGRLYAVYDQAVSIFYDLPQGSGFCLGQLNLEQRSESVRRTRSKIGFGILLSKEPDGVWAYNRGEHPIFVNSPTLDAPGGRALVVRKVPPGYSIKVFDFERSGLQHAPEPDAADGPYDPNSVRISFAKGWGPCYSRQFITSCPCWLEILLNNPR
modifications: full-length
notes: full-length Smad6 plasmid used as a control
With B1 the NF-κB-mediated reporter activity [3] was “suppressed” and the TGF-β1-mediated reporter activity [4] was “suppressed”.
